In article PMC5217682, “Galactomannan Catabolism Conferred by a Polysaccharide Utilization Locus of Bacteroides ovatus” (The Journal of Biological Chemistry, 2016):

Target: T1, BoMan26B (Bacteroides ovatus, UniProt A0ABU3IS29)
T1 construct: gene RO706_12620; residues 1-19 (lipoprotein signal) deleted; His tag kept; expressed in E. coli BL21(DE3); 347 residues, 39,870 Da with tag
T1 sequence (A0ABU3IS29 20-360): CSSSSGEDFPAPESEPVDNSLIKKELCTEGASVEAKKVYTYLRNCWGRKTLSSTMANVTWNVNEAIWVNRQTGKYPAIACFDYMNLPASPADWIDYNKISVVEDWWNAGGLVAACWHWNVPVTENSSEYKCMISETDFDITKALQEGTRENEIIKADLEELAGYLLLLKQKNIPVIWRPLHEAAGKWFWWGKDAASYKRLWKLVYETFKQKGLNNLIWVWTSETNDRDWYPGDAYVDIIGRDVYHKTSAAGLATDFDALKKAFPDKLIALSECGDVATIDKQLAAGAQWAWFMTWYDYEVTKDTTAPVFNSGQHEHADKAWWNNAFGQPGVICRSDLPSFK
Assay: hydrolysis by HPAEC-PAD
Type: biochemical
Details: […] substrate, […] potassium phosphate pH […] °C

OC[C@H]1O[C@@H](O[C@H]2[C@H](O)[C@H](O)[C@H](O[C@H]3[C@H](O)[C@H](O)[C@H](O[C@H]4[C@H](O)[C@H](O)[C@H](O[C@H]5[C@H](O)[C@H](O)C(O)O[C@@H]5CO)O[C@@H]4CO)O[C@@H]3CO)O[C@@H]2CO)[C@@H](O)[C@@H](O)[C@@H]1O (stereo partly shown) [M5, mannopentaose]
hydrolysis by HPAEC-PAD: it hydrolyzed all tested manno oligo- and polysaccharides (M3–M6
